The values below come from patent publication US20090298820A1, “3-SUBSTITUTED-1H-PYRROLO[2,3-B]PYRIDINE AND 3-SUBSTITUTED-1H-PYRROLO[3,2-B]PYRIDINE COMPOUNDS, THEIR USE AS MTOR KINASE AND PI3 KINASE INHIBITORS, AND THEIR SYNTHESES” (Wyeth, priority 2008, published 2009).

Bounds are passed on as bounds.

For one data set, the target named is PI3Kα (Homo sapiens, UniProt P42336). Kind of data set: PI3K-alpha fluorescence polarization assay. Format: biochemical. To be noted: read-out: PI3Kα Median IC50. (Fluorescence polarisation rises when a labelled molecule tumbles more slowly, as on binding a larger partner.)
A further data set addresses PI3Kγ (Homo sapiens, UniProt P48736). Put plainly: PI3K-gamma fluorescence polarization assay. The class given is biochemical. To be noted: read-out: PI3Kγ Median IC50.
The target of a further data set is mTOR (Homo sapiens, UniProt P42345). Kind of data set: mTOR enzyme assay (DELFIA format, His6-S6K substrate). Format: biochemical. Particulars: read-out: mTOR Kinase Median IC50.

Chain of PI3Kα (P42336 whole entry, species assumed): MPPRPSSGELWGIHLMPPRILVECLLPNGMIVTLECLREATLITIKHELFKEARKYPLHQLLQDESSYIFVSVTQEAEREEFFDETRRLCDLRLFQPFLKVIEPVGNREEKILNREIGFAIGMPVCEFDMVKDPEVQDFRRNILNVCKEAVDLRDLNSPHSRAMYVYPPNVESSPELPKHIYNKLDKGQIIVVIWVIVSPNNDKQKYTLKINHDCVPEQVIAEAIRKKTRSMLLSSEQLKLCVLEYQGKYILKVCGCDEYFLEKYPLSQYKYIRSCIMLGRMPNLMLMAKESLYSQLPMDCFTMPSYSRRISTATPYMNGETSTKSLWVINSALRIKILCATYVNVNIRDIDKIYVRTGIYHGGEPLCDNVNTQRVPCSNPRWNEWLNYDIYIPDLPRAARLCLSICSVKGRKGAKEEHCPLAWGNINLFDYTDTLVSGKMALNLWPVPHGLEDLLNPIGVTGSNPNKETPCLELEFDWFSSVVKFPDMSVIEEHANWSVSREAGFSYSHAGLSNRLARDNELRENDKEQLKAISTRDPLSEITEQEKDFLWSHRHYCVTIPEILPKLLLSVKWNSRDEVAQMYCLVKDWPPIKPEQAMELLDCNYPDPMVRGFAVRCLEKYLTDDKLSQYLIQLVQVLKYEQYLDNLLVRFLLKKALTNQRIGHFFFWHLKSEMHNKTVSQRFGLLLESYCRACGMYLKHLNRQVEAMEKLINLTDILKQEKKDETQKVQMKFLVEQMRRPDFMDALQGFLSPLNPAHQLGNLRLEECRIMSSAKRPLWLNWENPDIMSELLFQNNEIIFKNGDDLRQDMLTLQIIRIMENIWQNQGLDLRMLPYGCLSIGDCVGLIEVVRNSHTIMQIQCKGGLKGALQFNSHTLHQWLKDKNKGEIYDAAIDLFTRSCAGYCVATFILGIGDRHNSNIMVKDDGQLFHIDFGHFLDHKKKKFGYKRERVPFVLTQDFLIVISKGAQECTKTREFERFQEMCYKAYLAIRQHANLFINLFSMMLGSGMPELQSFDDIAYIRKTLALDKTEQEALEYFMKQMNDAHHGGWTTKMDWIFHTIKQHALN
Chain of PI3Kα (P27986 whole entry partner, species assumed): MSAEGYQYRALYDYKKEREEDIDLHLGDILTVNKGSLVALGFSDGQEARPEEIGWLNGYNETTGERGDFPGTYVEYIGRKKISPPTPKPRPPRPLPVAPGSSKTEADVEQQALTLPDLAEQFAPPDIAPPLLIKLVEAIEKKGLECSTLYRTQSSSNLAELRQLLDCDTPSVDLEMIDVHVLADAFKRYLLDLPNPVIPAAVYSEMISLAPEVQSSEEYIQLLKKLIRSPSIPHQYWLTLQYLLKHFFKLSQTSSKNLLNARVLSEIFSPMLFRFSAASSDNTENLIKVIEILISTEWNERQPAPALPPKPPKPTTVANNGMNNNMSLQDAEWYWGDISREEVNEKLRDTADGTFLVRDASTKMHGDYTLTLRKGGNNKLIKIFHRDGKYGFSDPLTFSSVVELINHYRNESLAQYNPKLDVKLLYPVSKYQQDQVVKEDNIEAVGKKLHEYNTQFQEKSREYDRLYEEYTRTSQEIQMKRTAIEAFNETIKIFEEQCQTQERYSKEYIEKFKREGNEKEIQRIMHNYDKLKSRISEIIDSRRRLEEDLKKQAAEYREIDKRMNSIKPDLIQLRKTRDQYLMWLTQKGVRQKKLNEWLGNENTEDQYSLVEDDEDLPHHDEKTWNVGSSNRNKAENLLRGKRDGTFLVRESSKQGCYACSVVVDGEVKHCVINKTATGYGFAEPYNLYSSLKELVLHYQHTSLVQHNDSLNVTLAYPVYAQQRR
Chain of PI3Kγ (P48736 whole entry, species assumed): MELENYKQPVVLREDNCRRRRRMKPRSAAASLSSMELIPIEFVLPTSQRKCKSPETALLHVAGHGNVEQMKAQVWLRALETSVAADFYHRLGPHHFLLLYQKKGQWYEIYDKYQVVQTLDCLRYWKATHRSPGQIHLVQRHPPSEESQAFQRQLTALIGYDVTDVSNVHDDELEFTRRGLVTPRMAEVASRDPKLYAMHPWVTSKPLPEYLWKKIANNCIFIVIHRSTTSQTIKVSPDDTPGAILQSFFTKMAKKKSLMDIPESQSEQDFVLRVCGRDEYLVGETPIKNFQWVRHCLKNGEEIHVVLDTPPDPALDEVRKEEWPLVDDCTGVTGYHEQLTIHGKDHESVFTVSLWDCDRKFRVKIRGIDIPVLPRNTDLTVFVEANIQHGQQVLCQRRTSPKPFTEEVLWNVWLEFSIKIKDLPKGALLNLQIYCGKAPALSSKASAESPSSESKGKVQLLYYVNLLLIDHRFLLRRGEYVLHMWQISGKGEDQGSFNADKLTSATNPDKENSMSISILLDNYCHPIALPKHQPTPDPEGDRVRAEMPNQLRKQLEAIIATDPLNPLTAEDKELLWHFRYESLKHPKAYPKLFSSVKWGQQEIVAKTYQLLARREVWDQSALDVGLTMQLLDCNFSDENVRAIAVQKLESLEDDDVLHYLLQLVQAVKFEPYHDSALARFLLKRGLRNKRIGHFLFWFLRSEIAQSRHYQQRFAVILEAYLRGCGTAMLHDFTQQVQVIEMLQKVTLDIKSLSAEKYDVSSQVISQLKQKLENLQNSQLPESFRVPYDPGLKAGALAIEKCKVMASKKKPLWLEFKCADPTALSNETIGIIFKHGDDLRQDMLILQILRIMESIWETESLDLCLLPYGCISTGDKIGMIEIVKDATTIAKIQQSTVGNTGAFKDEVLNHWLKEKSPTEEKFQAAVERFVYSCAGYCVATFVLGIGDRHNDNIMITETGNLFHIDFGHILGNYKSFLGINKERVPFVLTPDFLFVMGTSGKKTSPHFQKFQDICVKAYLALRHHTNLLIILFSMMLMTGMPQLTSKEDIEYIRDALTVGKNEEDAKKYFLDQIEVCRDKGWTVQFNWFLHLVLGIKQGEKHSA

What is called IC50 is the midpoint of a concentration-inhibition curve. In general, melting point refers to the temperature of the solid-liquid transition. In turn, `Cn1cc(/C=C2\Oc3cc(O)cc(O)c3C2=O)c2c(-c3ccc(Cl)cc3)ccnc21` [Compound 64, (2Z)-2-{[4-(4-chlorophenyl)-1-methyl-1H-pyrrolo[2,3-b]pyridin-3-yl]methylene}-4,6-dihydroxy-1-benzofuran-3(2H)-one] had a melting point of 345 °C. Also, the IC50 on PI3Kα came to 29 nM. In addition, the IC50 on PI3Kγ worked out at 81 nM. For the same molecule, the IC50 at mTOR came out at 1.8 nM.

`Cn1cc(/C=C2\Oc3cc(O)cc(O)c3C2=O)c2c(N3CCCCCC3)ccnc21` [Compound 65, (2Z)-2-[(4-azepan-1-yl-1-methyl-1H-pyrrolo[2,3-b]pyridin-3-yl)methylene]-4,6-dihydroxy-1-benzofuran-3(2H)-one] had a melting point of 297 to 300 °C. The IC50 at PI3Kα came out at 41 nM. The IC50 on PI3Kγ is 60 nM. Besides, the IC50 at mTOR turned out to be 0.6 nM.

With `COc1cccc(-c2ccnc3c2c(/C=C2\Oc4cc(O)cc(O)c4C2=O)cn3C)c1` [Compound 66, (2Z)-4,6-dihydroxy-2-{[4-(3-methoxyphenyl)-1-methyl-1H-pyrrolo[2,3-b]pyridin-3-yl]methylene}-1-benzofuran-3(2H)-one], the melting point fell in the range of 297 to 300 °C. For the same molecule, the IC50 on PI3Kα is 32 nM. Further, at PI3Kγ, the IC50 was 61 nM. In addition, at mTOR, the IC50 worked out at 1.4 nM.

On to `Cn1cc(/C=C2\Oc3cc(O)cc(O)c3C2=O)c2c(-c3ccc(CO)cc3)ccnc21` [Compound 67, (2Z)-4,6-dihydroxy-2-({4-[4-(hydroxymethyl)phenyl]-1-methyl-1H-pyrrolo[2,3-b]pyridin-3-yl}methylene)-1-benzofuran-3(2H)-one], for which the melting point was greater than 330 °C. Further, the IC50 on PI3Kα was determined as 7 nM. Further, the IC50 at PI3Kγ is 21 nM. Further, the IC50 at mTOR turned out to be 0.2 nM.

Molecule `Cn1cc(/C=C2\Oc3cccc(NC(=O)C(C)(C)C)c3C2=O)c2c(-c3ccccc3)ccnc21` [Compound 68, 2,2-dimethyl-N-{(2Z)-2-[(1-methyl-4-phenyl-1H-pyrrolo[2,3-b]pyridin-3-yl)methylene]-3-oxo-2,3-dihydro-1-benzofuran-4-yl}propanamide] returned a melting point of 251 to 253 °C. Further, the IC50 at PI3Kα is greater than 10000 nM. On PI3Kγ, the IC50 was 1800 nM. Besides, the IC50 on mTOR is greater than 4000 nM.

`COc1ccc(-c2ccnc3c2c(/C=C2\Oc4cccc(O)c4C2=O)cn3C)cn1` [Compound 71, (2Z)-4-hydroxy-2-{[4-(6-methoxypyridin-3-yl)-1-methyl-1H-pyrrolo[2,3-b]pyridin-3-yl]methylene}-1-benzofuran-3(2H)-one]: the melting point fell in the range of 242 to 244 °C. Also, at PI3Kα, the IC50 stood at 62 nM. In addition, the IC50 on PI3Kγ was found to be 249 nM. On mTOR, the IC50 was found to be 16 nM.

For the molecule `Cn1cc(/C=C2\Oc3cc(O)cc(O)c3C2=O)c2c(-c3ccc(S(C)(=O)=O)cc3)ccnc21` [Compound 72, (2Z)-4,6-dihydroxy-2-({1-methyl-4-[4-(methylsulfonyl)phenyl]-1H-pyrrolo[2,3-b]pyridin-3-yl}methylene)-1-benzofuran-3(2H)-one], the melting point lay within 276 to 286 °C. Further, at PI3Kα, the IC50 stood at 5 nM. At PI3Kγ, the IC50 was determined as 66 nM. In addition, the concentration for half-maximal inhibition (IC50) at mTOR turned out to be 0.7 nM.

In the case of `Cn1cc(/C=C2\Oc3cc(O)cc(O)c3C2=O)c2c(-c3cccc(S(C)(=O)=O)c3)ccnc21` [Compound 74, (2Z)-4,6-dihydroxy-2-({1-methyl-4-[3-(methylsulfonyl)phenyl]-1H-pyrrolo[2,3-b]pyridin-3-yl}methylene)-1-benzofuran-3(2H)-one], the melting point was 315 to 320 °C. Moreover, at PI3Kα, the IC50 is 14 nM. Further, at PI3Kγ, the IC50 stood at 132 nM. Besides, on mTOR, the IC50 stood at 1.6 nM.

`Cn1cc(/C=C2\Oc3cccc(O)c3C2=O)c2c(-c3cccc(S(C)(=O)=O)c3)ccnc21` [Compound 75, (2Z)-4-hydroxy-2-({1-methyl-4-[3-(methylsulfonyl)phenyl]-1H-pyrrolo[2,3-b]pyridin-3-yl}methylene)-1-benzofuran-3(2H)-one] gave a melting point of 310 to 318 °C. For the same molecule, the IC50 at PI3Kα is 92 nM. For the same molecule, the IC50 at PI3Kγ came out at 319 nM. For the same molecule, the IC50 on mTOR stood at 10.3 nM.
